PMC5047689 (Disease Models & Mechanisms, 2016)

Legend:
CLB-GE cells = assay: Resazurin cell proliferation assay, neuroblastoma cell line; format: cell-based; conditions: Homo sapiens, 120 h, read-out: IC50, inhibition of proliferation
Protocol: Fig. 1. […] Treatment of neuroblastoma cells with the ALK TKIs crizotinib and PF-06463922. (A,B) Proliferation was assessed over 5 days using the resazurin cell proliferation assay in the following neuroblastoma cell lines: CLB-BAR, CLB-GE, CLB-PE, SK-N-AS and IMR32. Neuroblastoma cell line characteristics: CLB-GE – MYCN amplified, 1p deletion, 17q gain, amplified ALK amplicon containing an ALK^F1174V mutation; CLB-BAR – amplified MYCN/ALK, Δexon 4-11, 1p deletion, 17q gain; IMR32 – MYCN, wt sequence but exons 2-4 are amplified, 1p deletion, 17q gain; CLB-PE – 1p gain, amplified MYCN, 17q gain; SK-N-AS – IGF-1 overexpressing, 1p deletion, 1q gain, 17q gain, 17 deletion. […] Cells were harvested and pre-cleared cell lysates were analyzed on SDS PAGE followed by western blotting for ALK, phospho-ALK-Y1278, phospho-ERK5, pan-ERK5 phospho-ERK1/2 and pan-ERK. Actin was employed as a loading control. Protein band intensities were quantified by Image Studio Lite 3.1 and normalized to untreated samples.
The neuroblastoma CLB cell lines were from Valerie Combaret (Centre Leon Berard, France) under material transfer agreement and all cell lines were authenticated during the investigation with Affymetrix Cytoscan High Density array and compared with earlier cytoscans ([Schleiermacher et al., 2003]). […]

[1] = set-up: method as in Johnson et al., 2014; Zou et al., 2015; conditions: ref Johnson et al., 2014, Zou et al., 2015, cited from earlier work
CLB-BAR cells = assay: Resazurin cell proliferation assay, neuroblastoma cell line; format: cell-based; conditions: Homo sapiens, 120 h, read-out: IC50, inhibition of proliferation
Protocol: (§1) Fig. 1. […] (A,B) Proliferation was assessed over 5 days using the resazurin cell proliferation assay in the following neuroblastoma cell lines: CLB-BAR, CLB-GE, CLB-PE, SK-N-AS and IMR32. Neuroblastoma cell line characteristics: CLB-GE – MYCN amplified, 1p deletion, 17q gain, amplified ALK amplicon containing an ALK^F1174V mutation; CLB-BAR – amplified MYCN/ALK, Δexon 4-11, 1p deletion, 17q gain; IMR32 – MYCN, wt sequence but exons 2-4 are amplified, 1p deletion, 17q gain; CLB-PE – 1p gain, amplified MYCN, 17q gain; SK-N-AS – IGF-1 overexpressing, 1p deletion, 1q gain, 17q gain, 17 deletion. […] Cells were harvested and pre-cleared cell lysates were analyzed on SDS PAGE followed by western blotting for ALK, phospho-ALK-Y1278, phospho-ERK5, pan-ERK5 phospho-ERK1/2 and pan-ERK. Actin was employed as a loading control. Protein band intensities were quantified by Image Studio Lite 3.1 and normalized to untreated samples.
(§2) CLB-BAR, CLB-GE, CLB-PE, SK-N-AS and IMR32 neuroblastoma cells (0.25×10^6) were plated on collagen-coated 48-well plates.

IMR32 cells = assay: as above; format: cell-based, human
Protocol: as §1, §2

CLB-PE cells = assay: as above; format: cell-based, human
Protocol: as §1, §2

SK-N-AS cells = assay: as above; format: cell-based, human
Protocol: as §1, §2

[2] = system: EML4-ALK-driven brain metastases; set-up: method as in Zou et al., 2015; conditions: mouse; effect reversible upon withdrawal; ref Zou et al., 2015; cited from earlier work
[3] = system: ALK (phospho-ALK-Y1278) and downstream signaling; assay: Immunoblotting of ALK signaling in CLB-BAR and CLB-GE neuroblastoma cells; format: cell-based, human; conditions: 6 h treatment, western blot
Protocol: as §1, §2

[4] = target: ALK kinase domain mutants; assay: In vitro kinase assay, summary over ALK kinase domain mutants; format: biochemical, human; conditions: including ALK^G1269A, read-out: inhibitor level for 50% reduction in activity, all kinase domain mutations tested
[5] = system: CLB-GE subcutaneous xenograft; assay: Subcutaneous CLB-GE (ALK^F1174V) xenograft in nude mice; format: in vivo, mouse
Protocol: Fig. 5. […] 4.5×10^6 CLB-GE cells were injected into left shoulder subcutaneously. (A) Tumor growth curves represent the average volume of vehicle group and PF-06463922-treated group, P≤0.05 (n=5 for each group). […] (C) Average body weight on the day of sacrifice is shown, P>0.05. (D) Immunoblotting analysis of indicated proteins from tumors collected after 8 days of treatment with vehicle or PF-0646399 and relapsed tumors. Tumor lysates were harvested, pre-cleared and analyzed by western blotting for ALK, phospho-ALK-Y1278, MYCN, phospho-ERK1/2 and phospho-AKT. Pan-ERK and pan-Akt were employed as loading controls. (E) Immunohistochemical staining of tumors for […] as a measure of proliferation rate as indicated. […] Data in all graphs presented as mean±s.d.
Mice were grouped by tumor volume randomly. […] Immunohistochemistry was as described ([Yamazaki et al., 2014]). […] (n=15).

[6] = 10 mg/kg twice per day, oral gavage, 7 days
[7] = 10 mg/kg twice per day, tumor lysates, western blot

C[C@@H](Oc1cc(-c2cnn(C3CCNCC3)c2)cnc1N)c1c(Cl)ccc(F)c1Cl [crizotinib]
IC50 (CLB-GE cells): 0.24 ± 0.027 µM

C[C@H]1Oc2cc(cnc2N)-c2c(nn(C)c2C#N)CN(C)C(=O)c2ccc(F)cc21 [PF-06463922, (10R)-7-amino-12-fluoro-2,10,16-trimethyl-15-oxo-10,15,16,17-tetrahydro-2H-8,4-(metheno)pyrazolo[4,3-h][2,5,11]-benzoxadiazacyclotetradecine-3-carbonitrile]
half-life ([1]; preclinical animal model): 2.7 h | central nervous system penetration [1]: ability to penetrate the central nervous system | IC50 (CLB-BAR cells): 0.016 ± 0.002 µM | decrease in proliferation at high doses (IMR32 cells; high doses (500 nM)): not observed | inhibition of proliferation (IMR32 cells; increasing doses, 5 days): did not observe inhibition of proliferation | decrease in proliferation at high doses (CLB-PE cells; high doses (500 nM)): not observed | inhibition of proliferation (CLB-PE cells; increasing doses, 5 days): did not observe inhibition of proliferation | decrease in proliferation at high doses (SK-N-AS cells; high doses (500 nM)): not observed | inhibition of proliferation (SK-N-AS cells; increasing doses, 5 days): did not observe inhibition of proliferation | IC50 (CLB-GE cells): 0.025 ± 0.002 µM | tumor volume and survival [2]: regression of tumor volume and prolonged mouse survival | ALK Y1278 phosphorylation [3]: loss of tyrosine 1278 (Y1278) phosphorylation on ALK | downstream signaling, pERK1/2 and pERK5 [3]: inhibition of downstream signaling | IC50 [4]: < 0.0065 µM | Ki-67 staining of tumors ([5]; 10 mg/kg twice per day, immunohistochemistry): reduced staining of the proliferation marker Ki-67 | body weight during treatment [5, 6]: no observed loss of body weight | tumor size during treatment [5, 6]: no increase of tumor size during treatment | MYCN expression in tumors [5, 7]: reduced expression of MYCN | phosphorylated ALK, ERK1/2 and PKB/Akt in tumors [5, 7]: Inhibition of phosphorylated ALK, ERK1/2 and PKB/Akt was observed | tumor re-growth after cessation of therapy ([5]; after 7 days of 10 mg/kg twice per day, treatment discontinued): Tumor re-growth was observed 7 days after cessation of therapy
